Experimental data from patent publication US12296014B2, “External preparation comprising non-lamellar liquid crystal-forming lipid” (FARNEX INCORPORATED, priority 2018, dated 2025).

Experiments:
[1] = Viscosity of the synthesized amphipathic compound; type: physicochemical; settings: at shear velocity of 92 l/s
Procedure: Specifically, the amphipathic compound represented by the general formula (I) has a viscosity of preferably 15.0 Pa-s or less, more preferably 11.0 Pa-s or less, further preferably 6.0 Pa-s or less, by itself, as measured at 25° C. This viscosity can be measured using, for example, a viscosity and viscoelasticity measuring apparatus (Gemini II, Malvern Instruments Ltd.) at a temperature of 25° C.
^1H-NMR and viscosity of the obtained compound were measured.

[2] = cited from earlier work

Structure (SMILES)	Viscosity [1] [Pa·s]	pKa [2]
CC(C)=CCC/C(C)=C/CCC(C)=CCCC(=O)OCC(O)CO (racemic) [Example 3, Mono-O-(5,9,13-trimethyltetradeca-4,8,12-trienoyl)glycerol]	0.26	–
CC(C)=CCC/C(C)=C/CC/C(C)=C/CCC(C)=CCCC(=O)OCC(O)CO (racemic) [Example 6, Mono-O-(5,9,13,17-tetramethyloctadeca-4,8,12,16-tetraenoyl)glycerol]	0.37	–
CC(=CCCC(=O)OCC(O)CO)CCCC(C)CCCC(C)C (stereo not shown) [Example 1, Mono-O-(5,9,13-trimethyltetradec-4-enoyl)glycerol]	0.48	–
CC1(C)O[C@@H]2C[C@H]3[C@@H]4CCC5=CC(=O)C=C[C@]5(C)[C@@]4(F)[C@@H](O)C[C@]3(C)[C@]2(C(=O)CO)O1 [triamcinolone acetonide]	–	13.37
